The values that follow come from US12630829B2, “Gene encoding cytochrome P450 and use thereof” (KUMIAI CHEMICAL INDUSTRY CO., LTD., priority 2020, dated 2026).

Series [1] concerns wild type Arabidopsis thaliana. The series can be described thus: Fenquinotrione sensitivity test on MS solid medium, wild type. In kind it is in vivo. Conditions: 10 nM in MS solid medium, 22° C., about 10 days, evaluated subjectively. Here is the method:
With a sensitivity difference from wild type Arabidopsis thaliana used as an index, it was verified whether or not the created transformant had resistance to fenquinotrione. In MS solid media in each of which fenquinotrione was added to a final concentration of 10,000, 1,000, 100, 10, or 1 nM, or 0.1% of DMSO was added as an untreated plot, sterilized seeds of Arabidopsis thaliana having AK454412 forced expression and wild type Arabidopsis thaliana were each seeded, and grown at 22° C. for about 10 days. The sensitivity to this drug was evaluated subjectively in accordance with the degree of chlorosis of acting symptom. The results are illustrated in FIG. 9. FIG. 9(A) illustrates results obtained in using the wild type Arabidopsis thaliana, and FIG. 9(B) illustrates results obtained in using the Arabidopsis thaliana having AK454412 forced expression.

For series [2], the system named is Arabidopsis thaliana having AK454412 forced expression. The series can be described thus: Fenquinotrione sensitivity test on MS solid medium, AK454412 forced expression. The format is in vivo. The following applies: 10,000 nM in MS solid medium, 22° C., about 10 days, evaluated subjectively. Here is the method: First, a binary vector, pMLH7133-AK454412_for At, for transforming Arabidopsis thaliana was produced. With the pET-22b-AK454412 produced in Example 1 used as a template, PCR was performed using a primer set of pMLH-tplb Xba IF (Fd) and pMLH-tplb Sac IF (Rv) to obtain a DNA fragment in which XbaI/SacI recognition sequence and 15 bases of In-Fusion recognition sequence were added to a terminal of full length CDS sequence of the AK454412 gene. The obtained DNA fragment and pMLH7133 vector, having been digested with the restriction enzymes XbaI/SacI, were linked to each other with In-Fusion HD Cloning Kit (Clontech) to produce a binary vector, pMLH7133-AK454412_for At, for transforming Arabidopsis thaliana (FIG. 8). The obtained construct was introduced into Agrobacterium EHA105 strain by an electroporation method. The transformation of Arabidopsis thaliana was performed by a floral dip method using this recombinant Agrobacterium.
With a sensitivity difference from wild type Arabidopsis thaliana used as an index, it was verified whether or not the created transformant had resistance to fenquinotrione. […] The sensitivity to this drug was evaluated subjectively in accordance with the degree of chlorosis of acting symptom. […]

The subject of series [3] is KJ541960 (wheat-derived P450) co-expressed with TaCPR. The series can be described thus: In vitro drug metabolism test of KJ541960 protein against fenquinotrione. In kind it is in vitro ADME. Conditions: test method and conditions of Example 1; KJ541960 reaction plot. As for the experimental part: (§1) It was verified by in vitro metabolism test whether or not a novel wheat-derived P450 of AK454412 is involved in herbicide metabolism. As a compound having high safety against wheat, fenquinotrione was used. […] A solution after completing the enzymatic reaction was centrifuged at 15,000 rpm for 1 minute, and the obtained supernatant was filtered through a 0.45 μm filter and then tested by LC/MS. LC/MS conditions were as follows:
Therefore, synthesis of an artificial gene of the KJ541960 gene was requested of Eurofins Genomics K.K. Here, NdeI and EcoRI sites were respectively added to the 5′ and 3′ terminals of the CDS sequence of the gene. A DNA fragment of the KJ541960 gene was cleaved through NdeI/EcoRI treatment from the synthesized pEX-A2J2-KJ541960 plasmid, and was linked to pET-22b(+) vector, similarly having been subjected to NdeI/EcoRI treatment, with Ligation-Convenience Kit, and thus pET-22b-KJ541960 was produced (FIG. 13). […]
It is noted that the KJ541960 gene, synthesized as the artificial gene, was set to encode an amino acid sequence, in which a membrane anchoring region of the 35 N-terminal amino acid residues was removed, and the 6β sequence (MAKKTSS) was added as the same conditions as in the AK454412 gene. […] Besides, the intensity of the peak of the detected demethylated product was substantially the same in both the reaction plots. […]

Series [4] relates to AK369081 (barley-derived P450) co-expressed with TaCPR. The series can be described thus: In vitro drug metabolism test of AK369081 protein against fenquinotrione. Conditions: test method and conditions of Example 1; AK369081 reaction plot. The format is in vitro ADME. As for the experimental part: as §1
Specifically, in the same manner as in KJ541960, recombinant proteins of these genes were prepared to evaluate, by in vitro test, whether or not these have fenquinotrione metabolic activity. First, an expression vector was designed by inserting, between NdeI and EcoRI sites of pET-22b(+), a nucleotide sequence, which encoded a sequence obtained by removing the transmembrane region (AK375492: 35 N-terminal amino acid residues, AK369081: 37 N-terminal amino acid residues) of each of the genes of Accession Nos. AK375492 and AK369081, and adding the 6β sequence (MAKKTSS) to the N-terminal, and synthesis of artificial genes was requested of GenScript. Each of the synthesized expression vectors (6β AK375492 in pET-22b, 6β AK369081 in pET-22b) was co-introduced, together with pACYC-del31_TaCPR, into E. coli BL21 star (DE3) strain for protein expression (FIG. 15). […]

The next series concerns CYP81A6. Conditions: reported so far; cited from earlier work.

As to `COc1ccc(-n2c(=O)c(C(=O)C3C(=O)CCCC3=O)nc3c(Cl)cccc32)cc1` [fenquinotrione], the “wild type Arabidopsis thaliana having chlorosis” value in series [1] is recorded as at least 90%. Further, in series [2], the chlorosis symptom entry was “not observed”. In addition, the “metabolism of fenquinotrione (production of demethylated product as index)” value in series [3] is “a parent peak of fenquinotrione was reduced, and a peak of the demethylated product appeared”. In addition, in series [4], the “metabolism of fenquinotrione (generation of demethylated product as index)” value is given as “a peak of the demethylated product (RT=in the vicinity of 15.1) appeared”. Besides, the “metabolic reactivity of CYP81A6 against the compound” value in the series on CYP81A6 is “exhibits metabolic reactivity”.
